Assay results reported in patent publication US12590296B2, “Method of culturing immortalized human hepatic progenitors or cells” (INSERM (INSTITUT NATIONAL DE LA SANTÉ ET DE LA RECHERCHE …, priority 2019, dated 2026).
“Also recorded” adds a separate entry of the source.

Key:
HepaRG cells [1] = details: HepaRG cells in 3D GelMa culture, in the presence of U126 (16.4% in its absence); data not shown
LX-2 cells [2] = assay: mRNA expression (RT-qPCR) in LX-2 cells in 3D GelMa culture; type: cell-based, human; details: 5 ng/mL every 48 h from day 2
Procedure: After 1, 2 and 4 week(s) of culture, 3D constructs comprising 3D cell structures were harvested, washed twice in PBS and total ribonucleic acid (RNA) was extracted using TRIzol™ reagent. The concentration of total RNA was measured with a NanoDrop ND-1000 (NanoDrop Technologies). Complementary deoxyribonucleic acid (cDNA) was synthetized using the High Capacity cDNA reverse transcriptase kit (Applied Biosystems Foster City, CA, USA), and real-time polymerase chain reaction (PCR) was performed using the Power SYBR Green PCR master mix (Applied Biosystems Foster City, CA, USA). […] The expression levels of the target genes were normalized to those of GAPDH and determined by the ΔΔCt method. Final results were expressed as the n-fold difference in target gene expression in samples when compared with the mean expression values of the target gene for controls: either non-differentiated HepaRG (referred to as 2D) or HepaRG differentiated in standard 2D culture conditions (referred to as 2D DMSO). […]
First, the culture of LX-2 cells alone in 3D GelMa culture was assessed, with or without treatment with TGFβ-1, a classical pro-fibrotic cytokine (Czaja et al., J Cell Biol. 1989 June; 108(6):2477-82). […] Then, the mRNA expression of ACTA2, ADAMTS12, LPL, COL1A1, MMP2, TGFβ-1 and TIMP1 was assessed in LX-2 cells in 3D GelMa culture, stimulated or not by TGFβ-1 (FIGS. 14A-G, respectively). […]

LX-2 cells [3] = assay: SHG microscopy of fibrillar collagen, LX-2 cells alone in 3D GelMa; type: cell-based, human; details: LX-2 cells cultured alone in 3D GelMa, after induction
Procedure: (§1) TPEF/SHG microscopy imaging was performed on mRIC facility of Biosit, University of Rennes1 (France). The SHG imaging system is composed of a confocal TCS SP5 scanning head (Leica Microsystems, Mannheim, Germany) mounted on a DMIRE2 inverted microscope (Leica Microsystems) and equipped with a MAITAI femtosecond laser (Spectra Physics, Santa Clara, CA). 60× water immersion objective (Olympus LUMFL 60 W×1.1NA) was used for applying an 820 nm excitation to the sample. The SHG signal was collected in the forward direction using the condenser (S1, NA ¼ 0.9-1.4; Leica Microsystems), and the TPEF was epi-collected in the backward direction. IRSP 715 bandpass and 410 nm infrared (IR) filters (10 nm full width at half-maximum, FWHM) were placed before the photomultiplier tube. The image processing was performed with ImageJ software (National Institutes of Health).
(§2) SHG microscopy was used to visualize fibrillar collagen, mostly collagen-1 and -3. Briefly, SHG relies on the nonlinear optical interactions with […] fibrillar structures, such as collagen type I, allowing their detection and quantification in 3D tissues. […] For example, such culture is not suitable for the study of liver fibrosis.

HepaRG cells [4] = assay: SHG microscopy of fibrillar collagen, HepaRG cells alone in 3D GelMa; type: cell-based, human; details: HepaRG cells cultured alone in 3D GelMa, with or without treatment
Procedure: as §1, §2

[5] = system: HepaRG cells in coculture with LX-2 cells and HUVECs (CoC); assay: mRNA expression (RT-qPCR) in HepaRG + LX-2 + HUVECs coculture (CoC) in 3D GelMa; type: cell-based, human
Procedure: After 1, 2 and 4 week(s) of culture, 3D constructs comprising 3D cell structures were harvested, washed twice in PBS and total ribonucleic acid (RNA) was extracted using TRIzol™ reagent. The concentration of total RNA was measured with a NanoDrop ND-1000 (NanoDrop Technologies). Complementary deoxyribonucleic acid (cDNA) was synthetized using the High Capacity cDNA reverse transcriptase kit (Applied Biosystems Foster City, CA, USA), and real-time polymerase chain reaction (PCR) was performed using the Power SYBR Green PCR master mix (Applied Biosystems Foster City, CA, USA). Basic local alignment search tool (BLAST) was used to design primer sequences which were purchased from Eurogentec (Searing, BE). The expression levels of the target genes were normalized to those of GAPDH and determined by the ΔΔCt method. Final results were expressed as the n-fold difference in target gene expression in samples when compared with the mean expression values of the target gene for controls: either non-differentiated HepaRG (referred to as 2D) or HepaRG differentiated in standard 2D culture conditions (referred to as 2D DMSO). All results are presented as mean±SD of at least n=3 experiments.
(§3) For coculture constructs, the bioprinted 3D structure comprising HepaRG cells and LX-2 cells was cultured during a week, before being put in a low attachment plate containing 1×10^6 HUVECs per mL of medium.
The mRNA expression of hepatic genes (ALB, ALDOB, PPARA and SERPINA1) and of myofibroblastic transition genes and extracellular matrix remodeling genes (ACTA2, ADAMTS12, COL1A1, COL3A1, MMP2, MMP9 and TIMP1) was assessed at day 21 (i) in HepaRG alone in 3D GelMa culture, (ii) in HepaRG in 3D GelMa culture with LX-2 cells and HUVECs (CoC) and (iii) in HepaRG in 3D GelMa culture with LX-2 cells and HUVECs (CoC) activated with TGFβ-1 treatment for 7 days (FIGS. 16A-K). […] The albumin secretion of the HepaRG cells in coculture with the LX-2 cells and HUVECs (CoC) was also assessed and compared to that of HepaRG cells cultured alone (HepaRG) and bioprinted in GelMa matrix under the same conditions.

[6] = system: HepaRG cells in coculture with LX-2 cells and HUVECs (CoC); assay: Albumin, urea and pro-collagen 1a1 secretion in coculture (CoC); type: cell-based, human
Procedure: (§4) Medium samples were taken for the determination of albumin and urea content every 48 h. Secreted albumin and proCol1a1 (pro-collagen 1 alpha 1) were quantified using the human serum albumin Duoset Enzyme Linked Immunosorbent Assay (ELISA) kit (R&D systems, Minneapolis, MN, USA) and the human pro-Col1a1 Duoset Enzyme Linked Immunosorbent Assay kits (R&D systems, Minneapolis, MN, USA), according to manufacturer's instructions. Quantification was performed by measuring absorbance at 450 nm using a microplate reader (SpectrostarNano, BMG labtech, Champigny s/Marne, FR). Urea secretion in the medium was measured using a ChromaDazzle Urea Assay kit (AssayGenie, Dublin, IR) according to the manufacturer's protocol, using medium as standard and reading the absorbance at 420 nm (SpectrostarNano, BMG labtech, Champigny s/Marne, FR)
as §3

[7] = system: HepaRG cells in coculture with LX-2 cells and HUVECs (CoC); assay: LDH release in coculture (CoC); type: cell-based; details: 5 ng/mL every 48 h for 7 days
Procedure: (§5) Cell viability was assessed by using the WST-1 (water soluble tetrazolium-1) proliferation assay on cell laden 3D constructs at different days or times of culture. Briefly, the cell laden 3D constructs were treated with 100 μL of WST-1 reagent and incubated 30 min at 37° C. Absorbance at 440 nm was read in a microplate reader (SpectrostarNano, BMG labtech, Champigny s/Marne, FR) and the values were converted into percentage of absorbance by comparison with controls assessed at day 0 or time 0. Measurement of lactate dehydrogenase (LDH) was performed on supernatants with the LDH-Glo™ Cytotoxicity Assay (Promega) by following manufacturer's instructions.

HepaRG or HepaRG+HUVECs = assay: Pro-collagen 1a1 secretion (ELISA) in HepaRG or HepaRG+HUVECs; type: cell-based, human; details: day 21
Procedure: as §4

HuH-7 cells [8] = assay: Cleaved caspase 3 (apoptosis) in HuH-7 cells in 3D GelMa culture; type: cell-based, human; details: treatment at day 14, data not shown
Procedure: Cell laden 3D constructs were fixed in 4% formaldehyde, washed 3 times in PBS and stored at 4° C. until use or immediately suspended in a 0.12 M phosphate buffer containing 10% w/v saccharose and incubated overnight. They were embedded in a protective matrix composed of gelatin 7.5% w/v and 10% w/v saccharose, then frozen in isopentane and cryosectioned at a thickness of 7 μm. Slides were stained on the Discovery Automated IHC stainer using the discovery Rhodamin kit (Ventana Mediacl systems, Tucson, AZ, USA). The concentrations and references of the primary antibodies that were used can be found in Table 1 below. After rinsing, signal enhancement was performed using the Ventana Rhodamin kit and secondary antibody anti-rabbit HRP (760-4311, Roche) or secondary antibody anti-mouse HRP (760-4310, Roche) for 16 min of incubation. After removal from the instrument, slides were manually rinsed, stained when required with albumin antibody then a secondary antibody for albumin detection (Donkey anti goat 488), and mounted with Dapi Fluoromount-G.

[9] = type: physicochemical
Procedure: The physical properties of different methacrylated gelatin matrices (GelMa matrices) were analyzed by assessing the polymerization and bioprinting properties of the matrices as a function of the GelMa concentration, the photoinitiator LAP concentration and the illumination time at 405 nm (FIG. 1). As shown on FIG. 1A, at 20° C. a concentration of GelMa of 2.5% was not sufficient to ensure a proper polymerization of the matrix and subsequently, an optimal viscosity for the bioprinting process. As shown on FIG. 1B, a minimum concentration of LAP (i.e., 0.1% (w/v)) and an optimized illumination time (i.e., 60 seconds) were defined to reduce the phototoxicity and the production of excess free radicals while maintaining sufficient structural integrity of the printed GelMa for 28 days at 37° C. As shown on FIGS. 1C-D, weight loss of the matrices was assessed as a function of the photoinitiator LAP concentration (either 0.1% (w/v) on FIG. 1C or 0.3% (w/v) on FIG. 1D) and the illumination time at 405 nm. A rapid decrease of the matrix weight, of up to about 40%, was observed 5 hours after the polymerization process (FIG. 1C-D). Then, a constant weight for at least 28 days was observed, indicating a good stability of the matrix in the culture medium at 37° C. (FIGS. 1C-D). […]

HuH-7 cells [10] = type: cell-based, human
Procedure: as §5

[11] = CoC, day 21, 5 ng/mL every 48 h for 7 days

N#CC(=C(/N)Sc1ccccc1N)/C(C#N)=C(/N)Sc1ccccc1N [U126]
EdU positive cells (HepaRG cells [1]): 0.9%

TGFβ-1: a classical pro-fibrotic cytokine
mRNA expression of ACTA2, COL1A1, MMP2 and TIMP1 (LX-2 cells [2]): clearly increased in a time-dependent manner
collagen fibrils (SHG microscopy) (LX-2 cells [3]): Very few collagen fibrils or no collagen fibrils at all; also recorded: no collagen fibrils were ever observed
collagen deposition (SHG microscopy) (HepaRG cells [4]): No collagen deposition
expression of genes involved in ECM homeostasis (ACTA2, ADAMTS12, COL1A1, COL3A1, MMP2, MMP9 and TIMP1) [5, 11]: increase
hepatic gene mRNA expression (ALB, ALDOB, PPARA and SERPINA1) [5, 11]: decrease
COL1A1 expression ([5]; HepaRG alone, HepaRG+HUVECs and CoC (all three conditions)): significant increase
albumin secretion ([6]; CoC, 5 ng/mL every 48 h for 7 days): decrease
urea secretion ([6]; CoC, over the 21 days of culture, with or without treatment, data not shown): remained stable
pro-collagen 1a1 secretion ([6]; HepaRG+LX-2+HUVECs (CoC), day 21): no significant increase
release of LDH (a cell death marker) in the medium [7]: no specific release
pro-collagen 1a1 secretion (HepaRG or HepaRG+HUVECs): significatively induces its secretion

N.N.[Cl][Pt][Cl] [cisplatin]
response of the cells to an apoptotic inducer (caspase 3) (HuH-7 cells [8]): responded well

methacrylated gelatin [GelMa]
constant weight (stability of the matrix in the culture medium) [9]: at least 28 days
HuH-7 cell viability (WST-1 proliferation assay) (HuH-7 cells [10]): no decrease
